# Assay results published in article PMC8286840, “Identifying SARS-CoV-2 antiviral compounds by screening for small molecule inhibitors of Nsp3 papain-like protease” (Biochemical Journal, 2021).
# Where a name gives a salt, the structure may show the parent alone. Read-outs that look alike come from different tables or passages of the source.
# Assays:
# [1] = biological target: T1, SARS-CoV-2 PLpro (nsp3 1564–1878) (Severe acute respiratory syndrome coronavirus 2, UniProt P0DTD1); assay: biochemical; design: FRET-quenched peptide (Pro3) cleavage by PLpro, 10 min pre-incubation, slope over 20 min, normalised to no-compound control; conditions: low concentration screen, read-out: % of control remaining
# [2] = biological target: T1, SARS-CoV-2 PLpro (nsp3 1564–1878); assay: biochemical; design: FRET-quenched peptide (Pro3) cleavage by PLpro, 10 min pre-incubation, slope over 20 min, normalised to no-compound control; conditions: high concentration screen, read-out: % of control remaining
compound,measurement,setting,value
CCCCCCCCCCCCCC/C=C\CCCC(=O)O [5(Z)-Eicosenoic acid],remaining activity at 1.25 µM,[1]; Well no.=4408,101%
same,remaining activity at 3.75 µM,[2]; Well no.=4408,92.5%
"CC1(C)CCC=[N+]1[O-] [5,5-Dimethyl-1-pyrroline-N-oxide]",remaining activity at 1.25 µM,[1]; Well no.=501,97%
same,remaining activity at 3.75 µM,[2]; Well no.=501,97.1%
"O=C1NC(=O)C(c2ccccc2)(c2ccccc2)N1 [5,5-Diphenylhydantoin]",remaining activity at 1.25 µM,[1]; Well no.=641,99.8%
same,remaining activity at 3.75 µM,[2]; Well no.=641,98.3%
"COc1cc(/C=C/c2ccccc2)oc(=O)c1 [5,6-Dehydrokawain]",remaining activity at 1.25 µM,[1]; Well no.=3559,105%
same,remaining activity at 3.75 µM,[2]; Well no.=3559,103%
"CCCCC/C=C\C/C=C\C/C=C\C[C@H]1O[C@H]1CCCC(=O)O [5,6-Epoxyeicosatrienoic acid]",remaining activity at 1.25 µM,[1]; Well no.=4383,105%
same,remaining activity at 3.75 µM,[2]; Well no.=4383,103%
"O=C(O)c1cc(=O)c2c(Cl)cc(Cl)cc2[nH]1 [5,7-Dichlorokynurenic acid]",remaining activity at 1.25 µM,[1]; Well no.=546,95.2%
same,remaining activity at 3.75 µM,[2]; Well no.=546,97.5%
"COc1c(O)cc2oc(-c3ccc(O)cc3)cc(=O)c2c1O [5,7-dihydroxy-2-(4-hydroxyphenyl)-6-methoxy-4H-chromen-4-one]",remaining activity at 1.25 µM,[1]; Well no.=5542,101%
same,remaining activity at 3.75 µM,[2]; Well no.=5542,102%
"CCCCCC#CCC#CCC#CCC#CCCCC(=O)O [5,8,11,14-Eicosatetraynoic acid]",remaining activity at 1.25 µM,[1]; Well no.=4472,98.7%
same,remaining activity at 3.75 µM,[2]; Well no.=4472,97.4%
"CCCCCCCCC#CCC#CCC#CCCCC(=O)O [5,8,11-Eicosatriynoic acid]",remaining activity at 1.25 µM,[1]; Well no.=411,101%
same,remaining activity at 1.25 µM,[1]; Well no.=4470,96.8%
same,remaining activity at 3.75 µM,[2]; Well no.=411,97.5%
same,remaining activity at 3.75 µM,[2]; Well no.=4470,92.3%
"CN(C)C(=O)Oc1cc(OC(=O)N(C)C)cc(C(O)CNC(C)(C)C)c1 (stereo not drawn) [5-(2-(tert-butylamino)-1-hydroxyethyl)-1,3-phenylene bis(dimethylcarbamate) hydrochloride]",remaining activity at 1.25 µM,[1]; Well no.=5871,104%
same,remaining activity at 3.75 µM,[2]; Well no.=5871,103%
"O=C1OC(CN2CCOCC2)CN1/N=C/c1ccc([N+](=O)[O-])o1 (stereo not drawn) [5-(4-morpholinylmethyl)-3-{[(E)-(5-nitro-2-furyl)methylidene]amino}-1,3-oxazolidin-2-one]",remaining activity at 1.25 µM,[1]; Well no.=6079,99.9%
same,remaining activity at 3.75 µM,[2]; Well no.=6079,98.7%
"c1cc(-c2cnn3cc(-c4ccc(N5CCNCC5)cc4)cnc23)c2cccnc2c1 [5-(6-(4-(piperazin-1-yl)phenyl)pyrazolo[1,5-a]pyrimidin-3-yl)quinoline]",remaining activity at 1.25 µM,[1]; Well no.=6009,104%
same,remaining activity at 3.75 µM,[2]; Well no.=6009,101%
"FC(F)(F)c1ccc(CNc2ccc(Cc3c[nH]c4ncccc34)cn2)cc1 [5-((1H-pyrrolo[2,3-b]pyridin-3-yl)methyl)-N-(4-(trifluoromethyl)benzyl)pyridin-2-amine]",remaining activity at 1.25 µM,[1]; Well no.=6012,104%
same,remaining activity at 3.75 µM,[2]; Well no.=6012,102%
"CN(C)c1nc(N)c(C(=O)NC(=N)N)nc1Cl [5-(N,N-Dimethyl)amiloride hydrochloride]",remaining activity at 1.25 µM,[1]; Well no.=63,102%
same,remaining activity at 3.75 µM,[2]; Well no.=63,99%
"NC(N)=NC(=O)c1nc(Cl)c(N2CCCCCC2)nc1N [5-(N,N-hexamethylene)amiloride]",remaining activity at 1.25 µM,[1]; Well no.=106,104%
same,remaining activity at 3.75 µM,[2]; Well no.=106,104%
CCN(c1nc(N)c(C(=O)NC(=N)N)nc1Cl)C(C)C [5-(N-Ethyl-N-isopropyl)amiloride],remaining activity at 1.25 µM,[1]; Well no.=203,99.7%
same,remaining activity at 3.75 µM,[2]; Well no.=203,97.3%
CC(C)CN(C)c1nc(N)c(C(=O)N=C(N)N)nc1Cl [5-(N-Methyl-N-isobutyl)amiloride],remaining activity at 1.25 µM,[1]; Well no.=209,99.9%
same,remaining activity at 3.75 µM,[2]; Well no.=209,100%
"O=C1NC(=O)C(Cc2ccc3cc(OCc4ccccc4F)ccc3c2)S1 (stereo not drawn) [5-({6-[(2-fluorobenzyl)oxy]-2-naphthyl}methyl)-1,3-thiazolidine-2,4-dione]",remaining activity at 1.25 µM,[1]; Well no.=5872,104%
same,remaining activity at 3.75 µM,[2]; Well no.=5872,97.8%
NC(=O)c1[nH]cnc1N [5-Amino-3H-imidazole-4-Carboxamide],remaining activity at 1.25 µM,[1]; Well no.=7449,103%
same,remaining activity at 3.75 µM,[2]; Well no.=7449,104%
Nc1ccc(O)c(C(=O)O)c1 [5-Aminosalicylic acid],remaining activity at 1.25 µM,[1]; Well no.=2121,105%
same,remaining activity at 3.75 µM,[2]; Well no.=2121,104%
NCCCCC(=O)O [5-Aminovaleric acid hydrochloride],remaining activity at 1.25 µM,[1]; Well no.=147,103%
same,remaining activity at 3.75 µM,[2]; Well no.=147,101%
O=c1[nH]c(=O)n([C@H]2C[C@H](O)[C@@H](CO)O2)cc1Br [5-BrdU],remaining activity at 1.25 µM,[1]; Well no.=7862,96%
same,remaining activity at 3.75 µM,[2]; Well no.=7862,97.6%
O=c1[nH]c(=O)n([C@H]2C[C@H](O)[C@@H](CO)O2)cc1Br [5-Bromo-2'-deoxyuridine],remaining activity at 1.25 µM,[1]; Well no.=269,95.6%
same,remaining activity at 3.75 µM,[2]; Well no.=269,98.4%
NCCc1c[nH]c2ccc(C(N)=O)cc12 [5-Carboxamidotryptamine maleate],remaining activity at 1.25 µM,[1]; Well no.=533,104%
same,remaining activity at 3.75 µM,[2]; Well no.=533,104%
O=c1[nH]c(=O)n([C@H]2C[C@H](O)[C@@H](CO)O2)cc1Cl [5-Chloro-2'-deoxyuridine],remaining activity at 1.25 µM,[1]; Well no.=7814,101%
same,remaining activity at 3.75 µM,[2]; Well no.=7814,102%
O=C(O)c1cc2cc(F)ccc2[nH]1 [5-Fluoroindole-2-carboxylic acid],remaining activity at 1.25 µM,[1]; Well no.=339,99.4%
same,remaining activity at 3.75 µM,[2]; Well no.=339,97.9%
O=c1[nH]cc(F)c(=O)[nH]1 [5-Fluorouracil],remaining activity at 1.25 µM,[1]; Well no.=661,97.2%
same,remaining activity at 1.25 µM,[1]; Well no.=2116,95.8%
same,remaining activity at 3.75 µM,[2]; Well no.=661,98.8%
same,remaining activity at 3.75 µM,[2]; Well no.=2116,98.2%
O=c1[nH]c(=O)n([C@@H]2O[C@H](CO)[C@@H](O)[C@H]2O)cc1F [5-Fluorouridine],remaining activity at 1.25 µM,[1]; Well no.=7900,95.4%
same,remaining activity at 3.75 µM,[2]; Well no.=7900,91.5%
N[C@@H](Cc1c[nH]c2ccc(O)cc12)C(=O)O [5-Hydroxy-L-tryptophan],remaining activity at 1.25 µM,[1]; Well no.=712,91.8%
same,remaining activity at 3.75 µM,[2]; Well no.=712,98.5%
O=C(O)Cc1c[nH]c2ccc(O)cc12 [5-Hydroxyindolacetic acid],remaining activity at 1.25 µM,[1]; Well no.=758,91.7%
same,remaining activity at 3.75 µM,[2]; Well no.=758,92.8%
O=C(O)Cc1c[nH]c2ccc(O)cc12 [5-Hydroxyindole-3-acetic acid],remaining activity at 1.25 µM,[1]; Well no.=5974,102%
same,remaining activity at 1.25 µM,[1]; Well no.=7351,103%
same,remaining activity at 3.75 µM,[2]; Well no.=5974,101%
same,remaining activity at 3.75 µM,[2]; Well no.=7351,102%
O=C(O)c1ccc(CO)o1 [5-Hydroxymethyl-2-furancarboxylic acid],remaining activity at 1.25 µM,[1]; Well no.=6689,97.9%
same,remaining activity at 3.75 µM,[2]; Well no.=6689,98.1%
O=c1[nH]cc(CO)c(=O)[nH]1 [5-Hydroxymethyluracil],remaining activity at 1.25 µM,[1]; Well no.=6499,99.6%
same,remaining activity at 3.75 µM,[2]; Well no.=6499,101%
